Patent US4792569A, “Anticonvulsant phenethyl sulfamates” (McNeilab, Inc., priority 1987, dated 1988)

Test system: tonic extensor seizure
Assay: maximal electroshock test (MES), block of tonic extensor seizure in mice
Format: in vivo, male albino mice of the Swiss Webster strain
Description: The compounds of formula (I) are useful as anticonvulsant agents. The anticonvulsant activity of the subject compounds was determined using a standard "maximal electroshock test" (MES). In this test, activity is indicated by a block of the tonic extensor seizure caused by application of an electric shock to mice via corneal electrodes, as described by Swinyard et al. in J. Pharmacol. Exptl. Therap. 106, 319 (1952). A more recent description of current anticonvulsant drug screening is given in Swinyard et al. in Epilepsia 19, 409 (1978). Non-fasted male albino mice of the Swiss Webster strain (Royal-Hart Laboratories, New Hampton, N.Y.) weighing 18-24 grams were used in this test. Six to eight groups of ten mice each were used per ED50 determination. The test compounds were administered as aqueous solutions or suspensions prepared with Tween 80 and water. Testing was conducted at 30 minutes following intraperitoneal injection and at 60 minutes following oral administration of the test compound. A group of ten mice injected with saline 10 ml/kg i.p. and tested 30 minutes later served as controls. ED50 's were calculated using a computerized probit analysis procedure.

Structure (SMILES)	MES Test % Inhibition (100 mg/kg, 30 min i.p.) [%]	MES Test % Inhibition (200 mg/kg, 60 min p.o.) [%]	MES Test % Inhibition (500 mg/kg i.p. in 30 min) [%]
NS(=O)(=O)OCCc1cccc(C(F)(F)F)c1 [Example 2, 3-(Trifluoromethyl)phenethylsulfamate]	70	100	–
NS(=O)(=O)OCCc1ccccc1 [Example 1b, Phenethylsulfamate]	90	100	–
NS(=O)(=O)OCCc1cccc([N+](=O)[O-])c1 [Example 6, 3-Nitrophenethylsulfamate]	80	40	–
COc1ccc(CCOS(N)(=O)=O)cc1OC [Example 3, 3,4-Dimethoxyphenethyl sulfamate]	–	–	30
Cc1ccccc1CCOS(N)(=O)=O [Example 5, 2-Methylphenethyl sulfamate]	90	70	–
